Entries after “also recorded” stand apart in the source; their conditions may differ.
Key:
CART19 cells [1] = test: CART19 cell degranulation (CD107α by flow cytometry) in co-culture with irradiated JeKo-1 cells; format: cell-based, human; settings: 1 μM or 10 μM, 1:1 ratio, 4 hours; FIG. 3A
Description: CART19 cells were cocultured with irradiated JeKo-1 tumor cells at a 1:1 ratio for 4 hours in the presence of 1 μM or 10 μM vecabrutinib. […] Untransduced T cell/JeKo-1 co-culture treated with 1 μM or 10 μM vecabrutinib were used as a negative control as the non-antigen-specific T cells were not expected to undergo degranulation in the presence of JeKo-1 target cells. CD107α was used as a marker to quantify degranulation, as this marker becomes part of the cellular membrane and accessible to surface staining with CD107α-specific antibody in degranulating cells. Following coculture, cells were fixed, permeabilized, attained and analyzed for CD107 levels by flow cytometry.

CART19 cells [2] = test: CART19 cell cytokine production in co-culture with JeKo-1 cells (38-multiplex of supernatants); format: cell-based, human; settings: 1 μM or 10 μM, 1:1 ratio
Description: The effect of vecabrutinib treatment on CART19 cell cytokine production was also evaluated. CART19 cells were cocultured with irradiated JeKo-1 tumor cells at a 1:1 ratio for 3 days in the presence of 1 μM or 10 μM vecabrutinib. […] Untransduced T cell/JeKo-1 coculture treated with 1 μM or 10 μM vecabrutinib were used as a negative control as the non-antigen-specific T cells were not expected to undergo activation and cytokine production in the presence of JeKo-1 target cells. Supernatants were harvested and the levels of multiple cytokines and chemokines were analyzed with 38-multiplex (Millipore).

[3] = system: CLL patients expressing BTK^C481S; settings: Allan, et al (2019); cited from earlier work
[4] = system: pro-inflammatory cytokines in serum; test: Phase 1 clinical trial, serum cytokine panel in patients with B cell malignancies; format: in vivo, human; settings: oral 20.5-410 mg twice daily, 4 weeks post-treatment vs pretreatment
Description: Human cancer patients having B cell malignancies were administered vecabrutinib in a Phase 1 clinical trial and a cytokine panel was used to evaluate cytokine levels in serum at 4 weeks following administration. Briefly, patients in the clinical trial had Chronic Lymphocytic Leukemia (CLL)/Small Lymphocytic Lymphoma (SLL) or Non Hodgkin's lymphoma (NHL) and had failed prior standard of care therapies. NHL indications included lymphoplasmacytoid lymphoma/Waldenstrom's macroglobulinemia (LPL/WM), mantle cell lymphoma (MCL), marginal zone lymphoma (MZL), diffuse large B-cell lymphoma of the activated B-cell subtype (DLBCL-ABC), and follicular lymphoma (FL). A group of 39 patients were orally administered a dose of 20.5 mg, 41 mg, 82 mg, 164 mg, 246 mg, 328 mg, or 410 mg of vecabrutinib as a capsule twice daily. Serum samples were collected from the patients prior to the start of treatment as 4-weeks post-treatment and analyzed by 38-multiplex (Millipore).

[5] = system: CD19-expressing JeKo-1 tumor cells; test: CART19-mediated killing of JeKo-1 tumor cells in in vitro co-culture (bioluminescence); format: cell-based, human
Description: CART19 cells and JeKo-1 tumor cells were cultured at a 1:1 ratio for 24 hours in the presence of 1 μM or 10 μM vecabrutinib. […] Control of untransduced (UTD) T cell/JeKo-1 co-culture in the presence of 1 μM or 10 μM vecabrutinib was used to determine any tumor cell killing induced by vecabrutinib in the absence of CART19 cells. The percentage of tumor cell killing was measured using bioluminescence imaging, with samples treated with D-luciferin prior to imaging. […] Control co-culture was treated with DMSO only. The percentage of tumor cell killing was measured as described above.

wild-type BTK = wild-type BTK (Homo sapiens, UniProt Q06187); settings: Aslan, et al (2021); cited from earlier work
[6] = system: JeKo-1 lymphoma xenograft; test: JeKo-1 lymphoma xenograft mouse model with CART19 cells; settings: 50 mg/kg oral gavage twice daily for 4 weeks, in combination with CART19
Description: The impact of vecabrutinib on CART19 cell anti-tumor effects was evaluated using a JeKo-1 lymphoma xenograft mouse model. To establish the mouse model, NSG mice were inoculated with 1×10^6 luciferase^+ JeKo-1 tumor cells by intravenous injection at day −14. […] Treatment groups received either CART cells with DMSO vehicle or CART cells in combination with 50 mg/kg vecabrutinib. The control group received untransduced T cells with DMSO vehicle. Administration of vecabrutinib or vehicle commenced one day prior to CART19 administration (i.e., day −1), and was given by oral gavage. Untransduced or CART19 were infused by intravenous administration on day 0 at a dose of 1×10^6 cells per animal. Vecabrutinib and vehicle were administered by oral gavage twice daily over a period of 4 weeks. Mice were imaged weekly by IVIS to assess tumor burden. Blood samples were collected from the mice on a weekly basis and the level of circulating CART19 cells was measured by flow cytometry. Mouse weight was also measured on a weekly basis as a measure of treatment toxicity.

CART19 cells [7] = test: CART19 proliferation in co-culture with irradiated JeKo-1 cells (absolute CD3+ T cell counts by flow cytometry); format: cell-based, human; settings: for toxicity to CART19 cells: in vitro, concentrations up to 10 μM
Description: CART19 proliferation in the presence of vecabrutinib was evaluated. CART19 cells were cocultured with irradiated JeKo-1 tumor cells at a 1:1 ratio for 24 hours in the presence of 1 μM or 10 μM vecabrutinib. Control co-culture was treated with DMSO vehicle only. Absolute CD3+ T cell counts were measured by flow cytometry.
CART19 cells were cocultured with irradiated JeKo-1 tumor cells at a 1:1 ratio for 24 hours in the presence of 1 μM or 10 μM. Control co-culture was treated with DMSO only. Absolute CD3+ T cell counts were measured by flow cytometry.

mutant BTK = settings: Aslan, et al (2021); cited from earlier work

Chain of wild-type BTK (Q06187 whole entry): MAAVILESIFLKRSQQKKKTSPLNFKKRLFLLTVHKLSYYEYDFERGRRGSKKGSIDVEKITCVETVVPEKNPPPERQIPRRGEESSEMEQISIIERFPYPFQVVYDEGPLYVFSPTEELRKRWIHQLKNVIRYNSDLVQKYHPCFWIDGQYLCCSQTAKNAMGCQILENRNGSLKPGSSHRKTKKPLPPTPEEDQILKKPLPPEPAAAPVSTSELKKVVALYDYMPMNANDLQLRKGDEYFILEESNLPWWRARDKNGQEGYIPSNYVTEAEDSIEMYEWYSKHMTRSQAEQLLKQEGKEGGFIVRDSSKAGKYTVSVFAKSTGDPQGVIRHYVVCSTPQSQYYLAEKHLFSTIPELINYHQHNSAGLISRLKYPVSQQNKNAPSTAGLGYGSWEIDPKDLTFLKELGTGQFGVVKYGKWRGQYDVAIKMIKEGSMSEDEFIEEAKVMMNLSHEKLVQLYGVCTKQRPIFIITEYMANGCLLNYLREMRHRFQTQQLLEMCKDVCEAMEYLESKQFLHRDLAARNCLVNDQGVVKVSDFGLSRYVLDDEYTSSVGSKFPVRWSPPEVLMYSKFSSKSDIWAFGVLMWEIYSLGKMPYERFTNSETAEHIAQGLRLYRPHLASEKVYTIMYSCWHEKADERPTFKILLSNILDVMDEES

Structure (SMILES)	CART19 degranulation (CD107α) (CART19 cells [1])	IL-6 in supernatant (CART19 cells [2]; FIG. 3B)	IL-10 in supernatant (CART19 cells [2]; FIG. 3C)	MIP-1β in supernatant (CART19 cells [2]; FIG. 3D)	efficacy in CLL patients expressing BTK^C481S [3]	serum level of IP-10 ([4]; FIG. 6A)	serum level of MIP-1β ([4]; FIG. 6B)	serum level of TNFα ([4]; FIG. 6C)	CART19-mediated killing of Jeko-1 lymphoma cells as compared to ibrutinib ([5]; 0.625.1 CART19 to tumor cell ratio, 24 hours, normalized to BTK inhibitor only, FIG. 1B)	killing of CD19-expressing JeKo-1 tumor cells ([5]; CART19:JeKo-1 1:1, 24 hours, 1 μM or 10 μM, vs DMSO control, FIG. 1A)	inhibitory activity against wild-type BTK (wild-type BTK)	antitumor activity (tumor burden by IVIS) compared to CART19 alone ([6]; FIG. 4A)	CART19 proliferation (circulating CART19 cells by flow cytometry) ([6]; FIG. 4B)	CART proliferation compared to the DMSO control (CART19 cells [7]; 1 μM or 10 μM, 1:1 ratio, 24 hours, FIG. 2A)	CART19 proliferation compared to control (CART19 cells [7]; 10 μM, 1:1 ratio, 24 hours, FIG. 2A/2B)	toxicity to CART19 cells (CART19 cells [7])	inhibitory activity against mutant BTK (mutant BTK)
NC(=O)[C@H]1CCN(c2ncnc(N)c2F)C[C@@H]1N1CCC[C@@H](Nc2cc(Cl)cc(C(F)(F)F)c2)C1=O [vecabrutinib, (3R,3′R,4′S)-1′-(6-amino-5-fluoropyrimidin-4-yl)-3-((3-chloro-5-(trifluoromethyl)phenyl)amino)-2-oxo-[1,3′-bipiperidine]-4′-carboxamide]	did not impair	downregulation	downregulation	downregulation	has efficacy	significantly decreased	significantly decreased	significantly decreased	significantly potentiated	significantly increased	maintain inhibitory activity	sustained antitumor activity	increased	comparable	increased	well-tolerated; also recorded: not toxic	maintain inhibitory activity
C=CC(=O)N1CCC[C@@H](n2nc(-c3ccc(Oc4ccccc4)cc3)c3c(N)ncnc32)C1 [ibrutinib, reference compound]	–	–	–	–	–	–	–	–	–	–	–	–	–	–	–	toxic; also recorded: dose-dependent toxicity	–

Source: patent US20260083848A1, “COMBINATION OF CAR T-CELL THERAPY WITH BTK INHIBITORS AND METHODS OF USE THEREOF” (priority 2021, published 2026)
